Experimental data from US20260317304A1, “TEAD INHIBITORS AND METHODS OF USE” (Sporos BioDiscovery, Inc., priority 2022, published 2026).

Tested on: MSTO-211H xenograft
Assay: Mouse xenograft MSTO-211H tumors, study part 3
Format: in vivo, BALB/c nude mice
Conditions: PO
Source text: This study evaluated the in vivo anti-tumor efficacy of test compounds in BALB/c nude mice for treatment of MSTO-211H xenograft of lung cancer.
• Species: Mus Musculus • Strain: BALB/c nude • Age: 6-8 weeks • Sex: female • Body weight: 18-22 g • Number of animals inoculated with tumor: 80 mice • Number of animals enrolled in the treatment: 36 mice • Number of unenrolled animals: 44 mice • Animal supplier: Beijing Vital River Biotechnology Experimental Animal Co. Ltd Certification number: 20170011010591
The MSTO-211H tumor cells were maintained in RPMI 1640 medium supplemented with 10% Fetal bovine serum and 1% Antibiotic-Antimycotic at 37° C. in an atmosphere of 5% CO2 in air. The tumor cells were routinely subcultured twice weekly by trypsin-EDTA. The cells growing in an exponential growth phase with 95% cell survival or above were harvested, and counted for tumor inoculation.
Each mouse was inoculated subcutaneously at the right flank with MSTO-211H tumor cells (5×10^6+50% matrigel/0.2 mL) for tumor development. Animals were marked with earrings with unique 6 significant figure number for identification. The treatments of part 1 were started on day 5 after cell inoculation when the average tumor volume reached 181 mm^3. The treatments of part 2 were started on day 16 after cell inoculation when the average tumor volume reached 254 mm^3. The treatments of part 3 were started on day 33 after cell inoculation when the average tumor volume reached 969 mm^3.
The major endpoint was to determine if the tumor growth could be delayed. Tumor volume was measured twice a week in two dimensions using a caliper, and the volume was expressed in mm^3 using the formula: V=0.5 a×b^2 where a and b are the long and short diameters of the tumor, respectively. The tumor size was then used for calculations of T/C value. The TGI value (in percent) or the T/C value (in percent) is an indication of antitumor effectiveness; T and C are the mean tumor volumes or tumor weights of the treated and control groups, respectively, on a given day.
TGI was calculated for each group using the formula: TGI (%)=[1−(Ti−T0)/(Vi−V0)]×100; Ti is the average tumor volume of a treatment group on a given day, T0 is the average tumor volume of the treatment group on the day of treatment start, Vi is the average tumor volume of the vehicle control group on the same day with Ti, and V0 is the average tumor volume of the vehicle group on the day of treatment start.
Relative T/C (%)=TRTV/CRTV×100 (RTV (%)=Vt/V0×100, Vt is the average tumor volume on a given day, V0 is the average tumor volume on the first day of treatment. TRTV is the RTV of a treatment group, and the CRTV is the RTV of the vehicle control group.)
The antitumor effectiveness of part 3 study was analyzed on PG-D13 when vehicle group reached 1791 mm^3.
Summary statistics, including mean and the standard error of the mean (SEM), were provided for the tumor volume of each group at each time point.
Statistical analysis of difference in tumor volume among the groups was conducted on the data obtained at the end of the study.
One-tailed T test was performed to compare tumor volumes between two groups. All data are analyzed using GraphPad Prism 6.0. p<0.05 is considered to be statistically significant.

[1] = part 3, day 13, 12.5 mg/kg, BID

In the case of `Cn1nnc(-c2cc([C@]3(C)CCNC3=O)ccc2Nc2ccc(C(F)(F)F)cc2)n1` (stereo in doubt) [Compound 20, 3-methyl-3-(3-(2-methyl-2H-tetrazol-5-yl)-4-((4-(trifluoromethyl)phenyl)amino)phenyl) pyrrolidin-2-one], the Tumor size (part 3, day 0, 12.5 mg/kg, BID) is reported as 963 ± 136 mm^3, the Tumor size (part 3, day 3, 12.5 mg/kg, BID) is reported as 740 ± 122 mm^3 and the Tumor size (part 3, day 6, 12.5 mg/kg, BID) is reported as 591 ± 61 mm^3. The Tumor size (part 3, day 10, 12.5 mg/kg, BID) was 444 ± 36 mm^3, the T/C [1] was 18.94% and the TGI [1] was 177.56%. The Tumor size [1] was 339 ± 51 mm^3 and the “Tumor Volume” value (part 3, day 13, 12.5 mg/kg, BID (Table 18)) was 339 ± 51 mm^3.
